Assay results: patent US8138168B1 (Takeda Pharmaceutical Company Limited, priority 2007, dated 2012)

Target: T1, Recombinant human renin (Homo sapiens, UniProt P00797)
T1 construct: isolate the active form (residues 67-406); made in house; host or cells: FreeStyle 293-F cells (transient expression of pcDNA3.1(+)/hREN)
T1 sequence (P00797 67-406): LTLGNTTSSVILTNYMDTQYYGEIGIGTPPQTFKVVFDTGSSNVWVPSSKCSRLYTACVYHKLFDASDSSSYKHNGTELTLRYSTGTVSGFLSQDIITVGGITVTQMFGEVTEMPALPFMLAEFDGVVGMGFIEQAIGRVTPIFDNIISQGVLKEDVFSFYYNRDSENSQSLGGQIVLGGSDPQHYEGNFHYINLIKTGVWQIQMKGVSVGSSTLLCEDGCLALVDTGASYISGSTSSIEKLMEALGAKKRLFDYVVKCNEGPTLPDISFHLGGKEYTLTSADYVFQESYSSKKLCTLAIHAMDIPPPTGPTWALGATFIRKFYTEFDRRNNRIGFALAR
Test: In vitro enzymatic activity assay of renin inhibitors (fluorogenic peptide substrate)
Type: biochemical
Details: for IC50: read-out: IC50 of Exemplified Compounds Against Renin
Procedure, shortened: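 Enzyme: recombinant human renin, 3 nM final, 10 min compound pre-incubation at 37 °C; buffer 50 mM Hepes pH 7.4 with 0.1 mg/mL BSA or extra 2% BSA; 5% DMSO.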

SMILES	IC50	Eutomer / distomer designation of the separated stereoisomers (isomers separated by preparative SFC, more or less active isomer as renin inhibitor)
COCCCn1c([C@]2(O)CCCN(C(=O)C[C@H](N)Cc3ccc(Cl)cc3)C2)nc2ccccc21 [Compound 247, (R)-3-amino-4-(4-chlorophenyl)-1-((S)-3-hydroxy-3-(1-(3-methoxypropyl)-1H-benzo[d]imidazol-2-yl)piperidin-1-yl)butan-1-one]	> 1 µM	Distomer
O=C(Nc1ccc2c(c1)OCCO2)N1CCCC(c2nc3ccccc3[nH]2)C1 (stereo not drawn) [Compound 15, 3-(1H-benzo[d]imidazol-2-yl)-N-(2,3-dihydrobenzo[b][1,4]dioxin-6-yl)piperidine-1-carboxamide]	> 1 µM	–
N[C@@H](CC(=O)N1CCCC(c2nc3ccccc3[nH]2)C1)c1cccc([N+](=O)[O-])c1 (stereo partly drawn) [Compound 40, (3S)-1-(3-(1H-benzo[d]imidazol-2-yl)piperidin-1-yl)-3-amino-3-(3-nitrophenyl)propan-1-one]	> 1 µM	–
COCCCn1c([C@@H]2CCCN(C(=O)[C@@H]3CN(C(=O)c4ccc(C(=O)OC)cc4)C[C@H]3N)C2)nc2ccccc21 [Compound 422, methyl 4-((3S,4R)-3-amino-4-((R)-3-(1-(3-methoxypropyl)-1H-benzo[d]imidazol-2-yl)piperidine-1-carbonyl)pyrrolidine-1-carbonyl)benzoate]	> 1 µM	–
COC(=O)[C@H](Cc1ccccc1)NC(=O)N1CCCC(c2nc3ccccc3[nH]2)C1 (stereo partly drawn) [Compound 12, (2S)-methyl 2-(3-(1H-benzo[d]imidazol-2-yl)piperidine-1-carboxamido)-3-phenylpropanoate]	> 1 µM	–
COCCCn1c(C2CCCN(C(=O)C[C@H](N)Cc3ccc4ccccc4c3)C2)nc2ccc(Cl)nc21 (stereo partly drawn) [Compound 102, (R)-3-amino-1-(3-(5-chloro-3-(3-methoxypropyl)-3H-imidazo[4,5-b]pyridin-2-yl)piperidin-1-yl)-4-(naphthalen-2-yl)butan-1-one]	> 1 µM	–
COCCCn1c([C@@H]2CCCN(C(=O)[C@@H]3CN(S(=O)(=O)c4ccccc4OC)C[C@H]3N)C2)nc2ccccc21 [Compound 379, ((3R,4S)-4-amino-1-(2-methoxyphenylsulfonyl)pyrrolidin-3-yl)((R)-3-(1-(3-methoxypropyl)-1H-benzo[d]imidazol-2-yl)piperidin-1-yl)methanone]	0.1 to 1 µM	–
COCCCn1c([C@@H]2CCCN(C(=O)C[C@H](N)CNC(=O)c3ccc(-c4ccc(F)cc4)o3)C2)nc2ccccc21 [Compound 304, N-((S)-2-amino-4-((R)-3-(1-(3-methoxypropyl)-1H-benzo[d]imidazol-2-yl)piperidin-1-yl)-4-oxobutyl)-5-(4-fluorophenyl)furan-2-carboxamide]	0.1 to 1 µM	–
COCCCn1c([C@@H]2CCCN(C(=O)C[C@H](N)CNC(=O)c3ccc4c(c3)CCO4)C2)nc2ccccc21 [Compound 271, N-((S)-2-amino-4-((R)-3-(1-(3-methoxypropyl)-1H-benzo[d]imidazol-2-yl)piperidin-1-yl)-4-oxobutyl)-2,3-dihydrobenzofuran-5-carboxamide]	0.1 to 1 µM	–
O=C(NC1CCCCC1)N1CCCC(c2nc3ccccc3[nH]2)C1 (stereo not drawn) [Compound 10, 3-(1H-benzo[d]imidazol-2-yl)-N-cyclohexylpiperidine-1-carboxamide]	> 1 µM	–
NC(=O)CCn1c([C@@H]2CCCN(C(=O)C[C@H](N)Cc3ccc(-c4ccccc4)cc3)C2)nc2ccccc21 [Compound 485, 3-(2-((R)-1-((R)-3-amino-4-(biphenyl-4-yl)butanoyl)piperidin-3-yl)-1H-benzo[d]imidazol-1-yl)propanamide]	> 1 µM	–
COCCCn1c([C@@H]2CCCN(C(=O)C[C@H](N)Cc3ccc(-n4ccccc4=O)cc3)C2)nc2ccccc21 [Compound 207]	0.1 to 1 µM	–
COCCCn1c([C@@H]2CCCN(C(=O)[C@@H]3CN(S(=O)(=O)c4ccc(Cl)c(Cl)c4)C[C@H]3N)C2)nc2ccccc21 [Compound 361, ((3R,4S)-4-amino-1-(3,4-dichlorophenylsulfonyl)pyrrolidin-3-yl)((R)-3-(1-(3-methoxypropyl)-1H-benzo[d]imidazol-2-yl)piperidin-1-yl)methanone]	0.1 to 1 µM	–
COCCCn1c([C@@H]2CCCN(C(=O)C[C@H](N)Cc3ccc(N4CCC(C(=O)OC)CC4)cc3)C2)nc2ccccc21 [Compound 237, methyl 1-(4-((R)-2-amino-4-((R)-3-(1-(3-methoxypropyl)-1H-benzo[d]imidazol-2-yl)ppiperidin-1-yl)-4-oxobutyl)phenyl)piperidine-4-carboxylate]	0.1 to 1 µM	–
CC(C)[C@H](N)C(=O)N1CCCC(c2nc3ccccc3[nH]2)C1 (stereo partly drawn) [Compound 47, (2S)-1-(3-(1H-benzo[d]imidazol-2-yl)piperidin-1-yl)-2-amino-3-methylbutan-1-one]	> 1 µM	–
COCCCn1c([C@@H]2CCCN(C(=O)[C@@H]3CN(S(=O)(=O)c4ccc(Br)cc4Cl)C[C@H]3N)C2)nc2ccccc21 [Compound 342, ((3R,4S)-4-amino-1-(4-bromo-2-chlorophenylsulfonyl)pyrrolidin-3-yl)((R)-3-(1-(3-methoxypropyl)-1H-benzo[d]imidazol-2-yl)piperidin-1-yl)methanone]	0.1 to 1 µM	–
COCCCn1c([C@@H]2CCCN(C(=O)[C@@H]3CN(S(=O)(=O)c4cccc(OC)c4)C[C@H]3N)C2)nc2ccccc21 [Compound 357, ((3R,4S)-4-amino-1-(3-methoxyphenylsulfonyl)pyrrolidin-3-yl)((R)-3-(1-(3-methoxypropyl)-1H-benzo[d]imidazol-2-yl)piperidin-1-yl)methanone]	0.1 to 1 µM	–
COCCCn1c([C@@H]2CCCN(C(=O)C[C@H](N)c3cccc(Cl)c3)C2)nc2ccccc21 [Compound 83, (S)-3-amino-3-(3-chlorophenyl)-1((R)-3-(1-(3-methoxypropyl)-1H-benzo[d]imidazol-2-yl)piperidin-1-yl)propan-1-one]	> 1 µM	–
COCCCn1c([C@@H]2CCCN(C(=O)C[C@H](N)CNC(=O)Nc3ccc4c(c3)CCC4)C2)nc2ccccc21 [Compound 266, 1-((S)-2-amino-4-((R)-3-(1-(3-methoxypropyl)-1H-benzo[d]imidazol-2-yl)piperidin-1-yl)-4-oxobutyl)-3-(2,3-dihydro-1H-inden-5-yl)urea]	0.1 to 1 µM	–

Further lines, results first:

IC50	Eutomer / distomer designation of the separated stereoisomers (isomers separated by preparative SFC, more or less active isomer as renin inhibitor)	SMILES
< 0.1 µM	–	COCCCn1c([C@@H]2CCCN(C(=O)C[C@H](N)CNC(=O)Nc3cccc(Cl)c3)C2)nc2ccccc21 [Compound 256, 1-((S)-2-ainino-4-((R)-3-(1-(3-methoxypropyl)-1H-benzo[d]imidazol-2-yl)piperidin-1-yl)-4-oxobutyl)-3-(3-chlorophenyl)urea]
< 0.1 µM	–	COCCCn1c([C@@H]2CCCN(C(=O)C[C@H](N)Cc3ccc(-c4ccnc(O)c4)cc3)C2)nc2c(F)cccc21 [Compound 444, (R)-3-amino-1-((R)-3-(4-fluoro-1-(3-methoxypropyl)-1H-benzo[d]imidazol-2-yl)piperidin-1-yl)-4-(4-(2-hydroxypyridin-4-yl)phenyl)butan-1-one]
0.1 to 1 µM	–	COCCCn1c([C@@H]2CCCN(C(=O)C[C@H](N)Cc3cc(F)c(F)cc3F)C2)nc2ccccc21 [Compound 86, (R)-3-amino-1((R)-3-(1-(3-methoxypropyl)-1H-benzo[d]imidazol-2-yl)piperidin-1-yl)-4-(2,4,5-trifluorophenyl)butan-1-one]
0.1 to 1 µM	–	COCCCn1c(C2CCCN(C(=O)C[C@H](N)Cc3ccc(Cl)cc3)C2)nc2ccccc21 (stereo partly drawn) [Compound 24, (3R)-3-amino-4-(4-chlorophenyl)-1-(3-(1-(3-methoxypropyl)-1H-benzo[d]imidazol-2-yl)piperidin-1-yl)butan-1-one]
0.1 to 1 µM	–	COCCCn1c([C@@H]2CCCN(C(=O)[C@@H]3CN(S(=O)(=O)c4c(Cl)cc(Cl)cc4Cl)C[C@H]3N)C2)nc2ccccc21 [Compound 340, ((3R,4S)-4-amino-1-(2,4,6-trichlorophenylsulfonyl)pyrrolidin-3-yl)((R)-3-(1(3-methoxypropyl)-1H-benzo[d]imidazol-2-yl)piperidin-1-yl)methanone]
0.1 to 1 µM	–	COCCCn1c([C@@H]2CCCN(C(=O)C[C@H](N)CNC(=O)c3cccc(C(=O)OC)c3)C2)nc2ccccc21 [Compound 282, methyl 3-((S)-2-amino-4-((R)-3-(1-(3-methoxypropyl)-1H-benzo[d]imidazol-2-yl)piperidin-1-yl)-4-oxobutylcarbamoyl)benzoate]
0.1 to 1 µM	–	COCCCn1c([C@@H]2CCCN(C(=O)C[C@H](N)Cc3ccc(N4CCC(CO)CC4)cc3)C2)nc2ccccc21 [Compound 235, (R)-3-amino-4-(4-(4-(hydroxymethyl)piperidin-1-yl)phenyl)-1-((R)-3-(1-(3-methoxypropyl)-1H-benzo[d]imidazol-2-yl)piperidin-1-yl)butan-1-one]
0.1 to 1 µM	–	COCCCn1c([C@@H]2CCCN(C(=O)[C@@H]3CN(C(=O)c4ccc5ccccc5c4)C[C@H]3N)C2)nc2ccccc21 [Compound 362, ((3R,4S)-1-(2-naphthoyl)-4-aminopyrrolidin-3-yl)((R)-3-(1-(3-methoxypropyl)-1H-benzo[d]imidazol-2-yl)piperidin-1-yl)methanone]
< 0.1 µM	–	COCCCn1c([C@@H]2CCCN(C(=O)C[C@H](N)Cc3ccc(-c4ccc(OCC5CC5)nc4)cc3)C2)nc2ccccc21 [Compound 143, (R)-3-amino-4-(4-(6-(cyclopropylmethoxy)pyridin-3-yl)phenyl)-1-((R)-3-(1-(3-methoxypropyl)-1H-benzo[d]imidazol-2-yl)piperidin-1-yl)butan-1-one]
< 0.1 µM	–	COCCCn1c([C@@H]2CCCN(C(=O)C[C@H](N)Cc3ccc(-n4c(=O)[nH]c5ccccc54)cc3)C2)nc2ccccc21 [Compound 212]
